In publication PMC11016761, “Production of Mono-Hydroxylated Derivatives of Terpinen-4-ol by Bacterial CYP102A1 Enzymes” (Journal of Microbiology and Biotechnology, 2023) one finds Kd data, which are given here for 1 molecule.

The experiment addresses CYP102A1 (Priestia megaterium, UniProt P14779, E144G/E268V/F82I/F88V/L189Q/N214S/R48L). Kind of experiment: UV-visible spectral binding titration (type II shift); also turnover by HPLC with NADPH-generating system (Km […]).

CYP102A1, sequence (P14779 whole entry R48L/F82I/F88V/E144G/L189Q/N214S/E268V): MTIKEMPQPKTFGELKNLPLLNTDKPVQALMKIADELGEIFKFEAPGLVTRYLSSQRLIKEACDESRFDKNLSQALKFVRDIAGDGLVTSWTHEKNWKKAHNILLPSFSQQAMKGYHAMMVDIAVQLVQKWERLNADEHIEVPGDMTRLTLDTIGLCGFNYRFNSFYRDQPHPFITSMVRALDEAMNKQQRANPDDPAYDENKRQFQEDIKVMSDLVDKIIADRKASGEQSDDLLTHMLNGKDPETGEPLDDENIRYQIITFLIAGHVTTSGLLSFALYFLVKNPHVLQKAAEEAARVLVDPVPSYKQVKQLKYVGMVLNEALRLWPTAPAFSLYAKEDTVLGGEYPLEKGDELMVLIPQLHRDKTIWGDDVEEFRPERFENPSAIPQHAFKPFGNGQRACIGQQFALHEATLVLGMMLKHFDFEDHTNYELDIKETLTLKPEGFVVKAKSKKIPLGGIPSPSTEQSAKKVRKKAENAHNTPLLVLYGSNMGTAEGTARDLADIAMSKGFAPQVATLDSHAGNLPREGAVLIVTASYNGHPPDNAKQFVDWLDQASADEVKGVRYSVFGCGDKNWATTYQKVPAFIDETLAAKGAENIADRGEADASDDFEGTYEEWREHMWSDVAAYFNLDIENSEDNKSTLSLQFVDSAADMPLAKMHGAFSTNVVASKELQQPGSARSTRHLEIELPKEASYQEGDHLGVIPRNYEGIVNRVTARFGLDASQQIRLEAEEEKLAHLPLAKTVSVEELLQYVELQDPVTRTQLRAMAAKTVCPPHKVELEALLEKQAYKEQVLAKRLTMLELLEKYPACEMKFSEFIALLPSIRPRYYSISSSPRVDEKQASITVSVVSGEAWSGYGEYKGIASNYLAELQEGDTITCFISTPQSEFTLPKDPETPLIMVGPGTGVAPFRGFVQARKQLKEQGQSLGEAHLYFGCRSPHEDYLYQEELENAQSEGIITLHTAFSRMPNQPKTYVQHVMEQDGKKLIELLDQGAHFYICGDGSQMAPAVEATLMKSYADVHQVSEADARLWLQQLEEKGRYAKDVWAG

The term Kd denotes the free concentration of one partner at which half of the binding sites on the other are occupied at equilibrium, for simple one-to-one binding. With `CC1=CCC(O)(C(C)C)CC1` (racemic) [terpinen-4-ol], the equilibrium dissociation constant (Kd) was 920 ± 260 nM.
